# Assay results reported in patent US8895585B2, “Nicotinamide derivative or salt thereof” (FUJIFILM Corporation, priority 2010, dated 2014).
# Target: T1, glutathione S-transferase (GST)-fused full-length human Syk protein (Homo sapiens, UniProt P43405)
# T1 construct: (GST)-fused full-length human Syk protein; GST (glutathione S-transferase); purchased Carna Biosciences
# Assay: Syk enzyme assay
# Format: biochemical
# Details: Syk enzyme assay, Test Example 1; read-out: IC50 of Syk-inhibitory activity
# Description: A glutathione S-transferase (GST)-fused full-length human Syk protein (Carna Biosciences), which had been generated using a Baculovirus expression system, was used in the Syk enzyme assay.
# 15 μl of a reaction solution (1.2 ng Syk, 20 mM HEPES, 10 mM MgCl2, 50 mM NaCl, 2 mM DTT, 0.05% BSA, pH 7.0) containing a Syk protein and a predetermined concentration of a test compound was shaken for 2 minutes, and it was then left at rest at room temperature for 13 minutes. Thereafter, 5 μl of Biotin-EDPDYEWPSA-NH2 (final concentration: 0.4 μM) serving as a substrate peptide and 5 μl of ATP (final concentration: 27 μM) were added to the reaction solution, and the obtained mixture was then shaken for 2 minutes. The reaction solution was further left at rest at room temperature for 40 minutes, so as to carry out an enzyme reaction.
# Thereafter, 50 μl of a reaction termination solution [5 μg/ml Streptavidin, 0.18 μg/ml PT66-K, 30 mM HEPES (pH 7.0), 150 mM KF, 75 mM EDTA, 0.15% BSA, 0.075% Tween20], which contained Streptavidin-Xlent (Cisbio) and Mab PT66-K (Cisbio), was added to the reaction solution to terminate the enzyme reaction. At the same time, the reaction solution was left at rest at room temperature for 1 hour, so as to carry out an antigen-antibody reaction. Thereafter, using EnVision (PerkinElmer), the time-resolved fluorescence was measured at 615 nm and 665 nm, so that the phosphorylation of the substrate peptide was measured.
# In addition, the following are standards for evaluating IC50 of Syk-inhibitory activity used in Table 21. • A: Up to 10 nM • B: 10 to 50 nM • C: 50 to 100 nM • D: 100 to 1000 nM The set of numbers (XYZ-xyz) given in each Example number column indicates the corresponding Example number (Example XYZ-xyz) in Table 21.
row,IC50 [nM],Compound
1,100 to 1000,"NC(=O)c1cc(F)c(N[C@@H]2CCCC[C@@H]2N)nc1Nc1ccc2nccn2c1 (relative stereo) [Example 004-130, 6-(cis-2-aminocyclohexylamino)-5-fluoro-2-((imidazo[1,2-a]pyridin-6-yl)amino)-nicotinamide]"
2,10 to 50,"NC(=O)c1cc(F)c(N[C@@H]2CCCC[C@@H]2N)nc1Nc1ccn2ccnc2c1 (relative stereo) [Example 004-131, 6-(cis-2-aminocyclohexylamino)-5-fluoro-2-((imidazo[1,2-a]pyridin-7-yl)amino)-nicotinamide]"
3,10 to 50,"NC(=O)c1cc(F)c(N[C@@H]2CCCC[C@@H]2N)nc1Nc1cnc2c(F)cccc2c1 (relative stereo) [Example 004-135, 6-(cis-2-aminocyclohexylamino)-5-fluoro-2-((8-fluoroquinolin-3-yl)amino)nicotinamide]"
4,< 10,"CNc1cc(Nc2nc(N[C@@H]3CCCC[C@@H]3N)c(F)cc2C(N)=O)cc2cccnc12 (relative stereo) [Example 004-136, 6-(cis-2-aminocyclohexylamino)-5-fluoro-2-((8-(methylamino)quinolin-6-yl)amino)-nicotinamide]"
5,< 10,"COCCNc1cc(Nc2nc(N[C@@H]3CCCC[C@@H]3N)c(F)cc2C(N)=O)cc2cccnc12 (relative stereo) [Example 004-137, 6-(cis-2-aminocyclohexylamino)-5-fluoro-2-((8-(2-methoxyethylamino)quinolin-6-yl)-amino)nicotinamide]"
6,< 10,"COc1cc(Nc2nc(N[C@@H]3CCCC[C@@H]3N)c(F)cc2C(N)=O)cc2cccnc12 (relative stereo) [Example 004-138, 6-(cis-2-aminocyclohexylamino)-5-fluoro-2-((8-methoxyquinolin-6-yl)amino)nicotinamide]"
7,< 10,"COCCOc1cc(Nc2nc(N[C@@H]3CCCC[C@@H]3N)c(F)cc2C(N)=O)cc2cccnc12 (relative stereo) [Example 004-139, 6-(cis-2-aminocyclohexylamino)-5-fluoro-2-((8-(2-methoxyethoxy)quinolin-6-yl)amino)-nicotinamide]"
8,10 to 50,"NC(=O)c1cc(F)c(N[C@@H]2CCCC[C@@H]2N)nc1Nc1cc(OCc2ccccc2)c2ncccc2c1 (relative stereo) [Example 004-140, 6-(cis-2-aminocyclohexylamino)-2-((8-(benzyloxy)quinolin-6-yl)amino)-5-fluoronicotinamide]"
9,10 to 50,"COC(=O)c1cc(Nc2nc(N[C@@H]3CCCC[C@@H]3N)c(F)cc2C(N)=O)cnc1N (relative stereo) [Example 004-142, methyl 2-amino-5-((6-(cis-2-aminocyclohexylamino)-3-carbamoyl-5-fluoropyridin-2-yl)amino)nicotinate]"
10,< 10,"NC(=O)c1cc(F)c(N[C@@H]2CCCC[C@@H]2N)nc1Nc1cncc(-c2cccc(F)c2)c1 (relative stereo) [Example 004-144, 6-(cis-2-aminocyclohexylamino)-5-fluoro-2-((5-(3-fluorophenyl)pyridin-3-yl)amino)-nicotinamide]"
11,< 10,"NC(=O)c1cc(F)c(N[C@@H]2CCCC[C@@H]2N)nc1Nc1cncc(-c2ccc(F)cc2)c1 (relative stereo) [Example 004-145, 6-(cis-2-aminocyclohexylamino)-5-fluoro-2-((5-(4-fluorophenyl)pyridin-3-yl)amino)-nicotinamide]"
12,< 10,"NC(=O)c1cc(F)c(N[C@@H]2CCCC[C@@H]2N)nc1Nc1cncc(-c2ccccc2Cl)c1 (relative stereo) [Example 004-146, 6-(cis-2-aminocyclohexylamino)-2-((5-(2-chlorophenyl)pyridin-3-yl)amino)-5-fluoronicotinamide]"
13,< 10,"NC(=O)c1cc(F)c(N[C@@H]2CCCC[C@@H]2N)nc1Nc1cncc(-c2cccc(Cl)c2)c1 (relative stereo) [Example 004-147, 6-(cis-2-aminocyclohexylamino)-2-((5-(3-chlorophenyl)pyridin-3-yl)amino)-5-fluoronicotinamide]"
14,10 to 50,"NC(=O)c1cc(F)c(N[C@@H]2CCCC[C@@H]2N)nc1Nc1cncc(-c2ccc(Cl)cc2)c1 (relative stereo) [Example 004-148, 6-(cis-2-aminocyclohexylamino)-2-((5-(4-chlorophenyl)pyridin-3-yl)amino)-5-fluoronicotinamide]"
15,100 to 1000,"COCCOc1ncc(Nc2nc(N[C@@H]3CCCC[C@@H]3N)c(F)cc2C(N)=O)c2ccccc12 (relative stereo) [Example 004-150, 6-(cis-2-aminocyclohexylamino)-5-fluoro-2-((1-(2-methoxyethoxy)isoquinolin-4-yl)amino)-nicotinamide]"
16,100 to 1000,"CCOCCOCCOc1ncc(Nc2nc(N[C@@H]3CCCC[C@@H]3N)c(F)cc2C(N)=O)c2ccccc12 (relative stereo) [Example 004-152, 6-(cis-2-aminocyclohexylamino)-2-((1-(2-(2-ethoxyethoxy)ethoxy)isoquinolin-4-yl)amino)-5-fluoronicotinamide]"
17,100 to 1000,"COc1ncc(Nc2nc(N[C@@H]3CCCC[C@@H]3N)c(F)cc2C(N)=O)c2ccccc12 (relative stereo) [Example 004-153, 6-(cis-2-aminocyclohexylamino)-5-fluoro-2-((1-methoxyisoquinolin-4-yl)amino)-nicotinamide]"
18,100 to 1000,"COCC(C)Oc1ncc(Nc2nc(N[C@@H]3CCCC[C@@H]3N)c(F)cc2C(N)=O)c2ccccc12 (relative stereo) [Example 004-154, 6-(cis-2-aminocyclohexylamino)-5-fluoro-2-((1-((1-methoxypropan-2-yl)oxy)isoquinolin-4-yl)amino)nicotinamide]"
19,< 10,"COc1nccc2c(Nc3nc(N[C@@H]4CCCC[C@@H]4N)c(F)cc3C(N)=O)cccc12 (relative stereo) [Example 004-155, 6-(cis-2-aminocyclohexylamino)-5-fluoro-2-((1-methoxyisoquinolin-5-yl)amino)-nicotinamide]"
20,< 10,"COCC(C)Oc1nccc2c(Nc3nc(N[C@@H]4CCCC[C@@H]4N)c(F)cc3C(N)=O)cccc12 (relative stereo) [Example 004-156, 6-(cis-2-aminocyclohexylamino)-5-fluoro-2-((1-((1-methoxypropan-2-yl)oxy)isoquinolin-5-yl)amino)nicotinamide]"
21,10 to 50,"CCOCCOCCOc1nccc2c(Nc3nc(N[C@@H]4CCCC[C@@H]4N)c(F)cc3C(N)=O)cccc12 (relative stereo) [Example 004-158, 6-(cis-2-aminocyclohexylamino)-2-((1-(2-(2-ethoxyethoxy)ethoxy)isoquinolin-5-yl)amino)-5-fluoronicotinamide]"
22,< 10,"CCOc1nccc2cc(Nc3nc(N[C@@H]4CCCC[C@@H]4N)c(F)cc3C(N)=O)ccc12 (relative stereo) [Example 004-165, 6-(cis-2-aminocyclohexylamino)-2-((1-ethoxyisoquinolin-6-yl)amino)-5-fluoronicotinamide]"
23,< 10,"CC(C)Oc1nccc2cc(Nc3nc(N[C@@H]4CCCC[C@@H]4N)c(F)cc3C(N)=O)ccc12 (relative stereo) [Example 004-166, 6-(cis-2-aminocyclohexylamino)-5-fluoro-2-((1-isopropoxyisoquinolin-6-yl)amino)-nicotinamide]"
24,< 10,"CCOCCOCCOc1nccc2cc(Nc3nc(N[C@@H]4CCCC[C@@H]4N)c(F)cc3C(N)=O)ccc12 (relative stereo) [Example 004-169, 6-(cis-2-aminocyclohexylamino)-2-((1-(2-(2-ethoxyethoxy)ethoxy)isoquinolin-6-yl)amino)-5-fluoronicotinamide]"

row,Compound,IC50 [nM]
1,"COC(C)CCOc1ncc(Nc2nc(N[C@@H]3CCCC[C@@H]3N)c(F)cc2C(N)=O)c2ccccc12 (relative stereo) [Example 004-151, 6-(cis-2-aminocyclohexylamino)-5-fluoro-2-((1-(3-methoxybutoxy)isoquinolin-4-yl)amino)-nicotinamide]",100 to 1000
2,"COC(C)CCOc1nccc2c(Nc3nc(N[C@@H]4CCCC[C@@H]4N)c(F)cc3C(N)=O)cccc12 (relative stereo) [Example 004-157, 6-(cis-2-aminocyclohexylamino)-5-fluoro-2-((1-(3-methoxybutoxy)isoquinolin-5-yl)amino)-nicotinamide]",10 to 50
3,"CC(C)COc1nccc2cc(Nc3nc(N[C@@H]4CCCC[C@@H]4N)c(F)cc3C(N)=O)ccc12 (relative stereo) [Example 004-167, 6-(cis-2-aminocyclohexylamino)-5-fluoro-2-((1-isobutoxyisoquinolin-6-yl)amino)-nicotinamide]",< 10
